Experimental data from patent publication US20190216827A1, “Composite Formulation of Dutasteride and Tadalafil Comprising Glycerol Fatty Acid Ester Derivative or Propylene Glycol Fatty Acid Ester Derivative and Oral Capsule Formulation Comprising the Same” (Yuyu Pharma, Inc., priority 2016, published 2019).
Values after ≈ are worked out from the molar mass of the structure shown. Values belong to the compound of their own block, whether it stands above or below them.

Legend:
[1] = Solubility test of dutasteride and tadalafil in oils; type: physicochemical; conditions: for solubility in a general oil: castor oil or soybean oil; for Solubility / solubility at 24 h: room temperature, stirring for 24 hours; for solubility at 24 h: oil or lipid, thermodynamic from solid
Description: In order to determine the solubility of dutasteride and tadalafil in oils, the solubilities to soybean oil, castor oil, glycerol monooleate, glycerol caprylate/caprate, propylene glycol monocaprylate and propylene glycol monolaurate were measured. A magnetic bar was placed in a 10 ml, vial, and 3 ml, of oil was added thereto. Then, while the mixture was stirred at room temperature, 100 mg of the main component was added thereto and the mixture was stirred at 500 rpm or higher. After stirring for 24 hours, only a supernatant was taken by a centrifugal separator, and an amount of the main component dissolved in the oil phase was quantitated by using a liquid chromatograph.

[2] = as above; type: physicochemical; conditions: room temperature, stirring for 24 hours; for solubility at 24 h: oil or lipid, thermodynamic from solid
[3] = in glycerol caprylate/caprate, glycerol monooleate, propylene glycol monocaprylate and propylene glycol monolaurate
[4] = in glycerol fatty acid ester derivative or propylene glycol fatty acid ester derivative as oil component

Compound: 17β-N-(2,5-bis (trifluoromethyl)) phenylcarbamoyl-4-aza-5α-androst-1-en-3-one [dutasteride]
solubility in a general oil [1]: low
solubility of dutasteride [1, 3]: ≥ 2500 µg/mL
solubility of dutasteride [1, 4]: ≥ 1000 µg/mL
Solubility ([1]; solvent Castor oil): 1500 µg/mL
Solubility ([1]; solvent Glycerol caprylate/caprate): 14340 µg/mL
Solubility ([1]; solvent Glycerol monooleate): 4580 µg/mL
Solubility ([1]; solvent Propylene glycol dicaprate): 770 µg/mL
Solubility ([1]; solvent Propylene glycol dicaprylate): 1130 µg/mL
Solubility ([1]; solvent Propylene glycol monocaprylate): 20980 µg/mL
Solubility ([1]; solvent Propylene glycol monolaurate): 9340 µg/mL
Solubility ([2]; solvent Glycerol tricaprylate): 840 µg/mL

solubility in a general oil [1]: low
solubility at 24 h ([1]; glycerol caprylate/caprate (oil), solvent Glycerol caprylate/caprate): 4130 µg/mL (≈ 10600 µM)
solubility at 24 h ([1]; glycerol monooleate (oil), solvent Glycerol monooleate): 1110 µg/mL (≈ 2850 µM)
solubility of tadalafil relative to that of dutasteride [1, 3]: ⅓
solubility of tadalafil relative to the solubility of dutasteride [1, 4]: ½
solubility at 24 h ([1]; solvent Castor oil): 1030 µg/mL (≈ 2650 µM)
solubility at 24 h ([1]; solvent Soybean oil): 240 µg/mL (≈ 616 µM)
solubility at 24 h ([1]; propylene glycol dicaprate (oil), solvent Propylene glycol dicaprate): 270 µg/mL (≈ 693 µM)
solubility at 24 h ([1]; propylene glycol monocaprylate (oil), solvent Propylene glycol monocaprylate): 4090 µg/mL (≈ 10500 µM)
solubility at 24 h ([1]; propylene glycol monolaurate (oil), solvent Propylene glycol monolaurate): 1030 µg/mL (≈ 2650 µM)
solubility at 24 h ([2]; glycerol tricaprylate (oil), solvent Glycerol tricaprylate): 400 µg/mL (≈ 1030 µM)
solubility at 24 h ([2]; propylene glycol dicaprylate (oil), solvent Propylene glycol dicaprylate): 440 µg/mL (≈ 1130 µM)
Compound: CN1CC(=O)N2[C@H](c3ccc4c(c3)OCO4)c3[nH]c4ccccc4c3C[C@@H]2C1=O [tadalafil, 6R-trans-6-(1,3-benzodioxol-5-yl)-2,3,6,7,12,12a-hexahydro-2-methyl-pyrazino [1′,2′:1,6] pyrido[3,4-b]indole-1,4-dione]
